17 compounds from PubChem BioAssay AID248 (DTP/NCI, 2004) can be followed below.

Values joined by “and” are separate entries in the source; they are usually repeats but may differ in a detail not shown here. Equal entries are not always repeated. Toxic doses and inconclusive results are not listed.

The test system of the test is L1210 leukemia ip in BDF1 mice, survival T/C. As to the kind of experiment: NCI In Vivo Anticancer Drug Screen. Data for tumor model L1210 Leukemia (intraperitoneal) in B6D2F1 (BDF1) mice. The note with it: endpoint: mean survival time, higher = longer survival. The essentials:
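Transplantable tumor model; survival measured in treated vs vehicle control mice. Value = treated/control.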

Where [1] appears, read: dose: 50.0 mg/kg/injection, schedule: Q01DX009 (ip), vehicle: saline.
Where [2] appears, read: dose: 100.0 mg/kg/injection, schedule: Q01DX001 (ip), vehicle: saline.
Setting [3] is: dose: 200.0 mg/kg/injection, schedule: Q01DX001 (ip), vehicle: saline.
Where [4] appears, read: dose: 400.0 mg/kg/injection, schedule: Q01DX001 (ip), vehicle: saline.
Setting [5] is: dose: 100.0 mg/kg/injection, schedule: Q01DX001 (ip), vehicle: carboxymethylcellulose (CMC).
Setting [6] is: dose: 200.0 mg/kg/injection, schedule: Q01DX001 (ip), vehicle: carboxymethylcellulose (CMC).
Where [7] appears, read: dose: 400.0 mg/kg/injection, schedule: Q01DX001 (ip), vehicle: carboxymethylcellulose (CMC).
The mark [8] stands for this setting: dose: 100.0 mg/kg/injection, schedule: Q04DX003 (ip), vehicle: saline with Tween-80.
The mark [9] stands for this setting: dose: 200.0 mg/kg/injection, schedule: Q04DX003 (ip), vehicle: saline with Tween-80.
Where [10] appears, read: dose: 400.0 mg/kg/injection, schedule: Q04DX003 (ip), vehicle: saline with Tween-80.
Setting [11] is: dose: 100.0 mg/kg/injection, schedule: Q01DX001 (ip), vehicle: other.
[12] abbreviates: dose: 200.0 mg/kg/injection, schedule: Q01DX001 (ip), vehicle: other.
Setting [13] is: dose: 400.0 mg/kg/injection, schedule: Q01DX001 (ip), vehicle: other.

In the case of `OCn1cnc2c(SC3CCCC3)ncnc21`, the T/C is, setting by setting: (dose: 35.0 mg/kg/injection, schedule: Q01DX015 (ip), vehicle: saline) 114 % of control; under setting [1], 112 % of control; (dose: 50.0 mg/kg/injection, schedule: Q01DX015 (ip), vehicle: saline) 123 % of control; (dose: 80.0 mg/kg/injection, schedule: Q01DX009 (ip), vehicle: saline) 119 % of control; (dose: 88.0 mg/kg/injection, schedule: Q01DX009 (ip), vehicle: Klucel (hydroxypropylcellulose) (HPC)) 154 % of control; under setting [2], 88 % of control. The T/C (dose: 120.0 mg/kg/injection, schedule: Q01DX015 (ip), vehicle: saline) is 153 % of control; the T/C (dose: 180.0 mg/kg/injection, schedule: Q01DX009 (ip), vehicle: other) was 152 % of control; the T/C (dose: 180.0 mg/kg/injection, schedule: Q01DX015 (ip), vehicle: saline) is 161 % of control; the T/C under setting [3] was 104 % of control; the T/C (dose: 200.0 mg/kg/injection, schedule: Q01DX009 (ip), vehicle: Klucel (hydroxypropylcellulose) (HPC)) is 92 % of control; the T/C (dose: 270.0 mg/kg/injection, schedule: Q01DX015 (ip), vehicle: saline) is 113 % of control. Further, under setting [4], the T/C is 111 % of control.
For the compound `Cc1cc(=O)[nH]c(/N=C(\N)Nc2ccc(Cl)cc2)n1`, the T/C was 93 % of control (dose: 100.0 mg/kg/injection, schedule: Q04DX002 (ip), vehicle: saline); 99 % of control (dose: 200.0 mg/kg/injection, schedule: Q04DX002 (ip), vehicle: saline); 96 % of control (dose: 400.0 mg/kg/injection, schedule: Q04DX002 (ip), vehicle: saline).
Take `O=NN(CCCl)C(=O)Nc1cc(Cl)ccc1O`: the T/C was 116 % of control (dose: 1.0 mg/kg/injection, schedule: Q01DX001 (ip), vehicle: carboxymethylcellulose (CMC)); 110 % of control (dose: 2.0 mg/kg/injection, schedule: Q01DX001 (ip), vehicle: carboxymethylcellulose (CMC)); 116 % of control (dose: 4.0 mg/kg/injection, schedule: Q01DX001 (ip), vehicle: carboxymethylcellulose (CMC)); 100 % of control (dose: 44.0 mg/kg/injection, schedule: Q01DX009 (ip), vehicle: carboxymethylcellulose (CMC)); 111 % of control (dose: 66.0 mg/kg/injection, schedule: Q01DX001 (ip), vehicle: carboxymethylcellulose (CMC)); 90 % of control (dose: 66.0 mg/kg/injection, schedule: Q01DX009 (ip), vehicle: carboxymethylcellulose (CMC)). Besides, the T/C is, setting by setting: under setting [5], 114 % of control; (dose: 100.0 mg/kg/injection, schedule: Q01DX009 (ip), vehicle: carboxymethylcellulose (CMC)) 95 % of control; (dose: 150.0 mg/kg/injection, schedule: Q01DX001 (ip), vehicle: carboxymethylcellulose (CMC)) 111 % of control; under setting [6], 115 % of control; (dose: 225.0 mg/kg/injection, schedule: Q01DX001 (ip), vehicle: carboxymethylcellulose (CMC)) 123 % of control; under setting [7], 116 % of control. Moreover, for the setting “dose: 800.0 mg/kg/injection, schedule: Q01DX001 (ip), vehicle: carboxymethylcellulose (CMC)”, the T/C was 118 % of control.
Regarding `OC1CC2CCC(C2)C1(O)c1ccccc1` (stereo unspecified), the T/C was 93 % of control (dose: 100.0 mg/kg/injection, schedule: Q04DX003 (ip), vehicle: Klucel (hydroxypropylcellulose) (HPC)); 117 % of control (dose: 200.0 mg/kg/injection, schedule: Q04DX003 (ip), vehicle: Klucel (hydroxypropylcellulose) (HPC)); 93 % of control (dose: 400.0 mg/kg/injection, schedule: Q04DX003 (ip), vehicle: Klucel (hydroxypropylcellulose) (HPC)).
With `CCCCN(Cl)C(C)=O`, the T/C runs as follows: under setting [2], 96 % of control; under setting [3], 100 % of control; under setting [4], 96 % of control.
For the compound `O=C(NCc1ccccc1)C(Cc1ccccc1)Cc1ccccc1`, the T/C under setting [5] is 93 % of control, the T/C under setting [6] is 95 % of control and the T/C under setting [7] was 98 % of control.
Take `O=S(=O)(C/C=C/COc1ccccc1)c1ccc2ccccc2c1`: the T/C was 104 % of control (dose: 75.0 mg/kg/injection, schedule: Q01DX001 (ip), vehicle: Klucel (hydroxypropylcellulose) (HPC)); 102 % of control (dose: 75.0 mg/kg/injection, schedule: Q01DX009 (ip), vehicle: Klucel (hydroxypropylcellulose) (HPC)); 94 % of control (dose: 150.0 mg/kg/injection, schedule: Q01DX001 (ip), vehicle: Klucel (hydroxypropylcellulose) (HPC)); 96 % of control (dose: 150.0 mg/kg/injection, schedule: Q01DX009 (ip), vehicle: Klucel (hydroxypropylcellulose) (HPC)); 113 % of control (dose: 300.0 mg/kg/injection, schedule: Q01DX001 (ip), vehicle: Klucel (hydroxypropylcellulose) (HPC)); 98 % of control (dose: 300.0 mg/kg/injection, schedule: Q01DX009 (ip), vehicle: Klucel (hydroxypropylcellulose) (HPC)).
With `Cc1ccc(S(=O)(=O)C(CC(=O)O)c2ccccc2)cc1` (stereo unspecified), the T/C by setting is: under setting [5], 88 % of control; under setting [6], 93 % of control; under setting [7], 98 % of control.
Take `C(=N\c1ncn[nH]1)/Nc1ncn[nH]1`: the T/C is 94 % of control (dose: 100.0 mg/kg/injection, schedule: Q04DX003 (ip), vehicle: saline) and 96 % of control (dose: 200.0 mg/kg/injection, schedule: Q04DX003 (ip), vehicle: saline).
In the case of `CCOC(=O)CSC1=NCCN1`, the T/C is 105 % of control under setting [2], 113 % of control under setting [3] and 105 % of control under setting [4].
With `OC1OCCOC1O` (stereo unspecified), the T/C under setting [1] was 100 % of control; the T/C (dose: 100.0 mg/kg/injection, schedule: Q01DX009 (ip), vehicle: saline) is 100 % of control; the T/C (dose: 200.0 mg/kg/injection, schedule: Q01DX009 (ip), vehicle: saline) is 109 % of control; the T/C (dose: 400.0 mg/kg/injection, schedule: Q01DX009 (ip), vehicle: saline) was 103 % of control.
Turning to `CC(C)=C(c1ccc(Cl)cc1)c1c(N)ncnc1N`, the T/C under setting [8] is 100 % of control, the T/C under setting [9] was 100 % of control and the T/C under setting [10] was 100 % of control.
`[I][Pb]([c]1ccccc1)([c]1ccccc1)[c]1ccccc1`: the T/C (dose: 12.5 mg/kg/injection, schedule: Q04DX003 (ip), vehicle: Klucel (hydroxypropylcellulose) (HPC)) was 98 % of control and the T/C (dose: 25.0 mg/kg/injection, schedule: Q04DX003 (ip), vehicle: Klucel (hydroxypropylcellulose) (HPC)) is 94 % of control.
With `CCC(=O)C(CCN1CCC(n2c(=O)[nH]c3ccccc32)CC1)(c1ccccc1)c1ccccc1`, the T/C reads like this: (dose: 0.2 mg/kg/injection, schedule: Q01DX009 (ip), vehicle: saline with Tween-80) 90 % of control; (dose: 0.4 mg/kg/injection, schedule: Q01DX009 (ip), vehicle: saline with Tween-80) 89 % of control; (dose: 0.78 mg/kg/injection, schedule: Q01DX009 (ip), vehicle: saline with Tween-80) 88 % of control; (dose: 0.8 mg/kg/injection, schedule: Q01DX009 (ip), vehicle: saline with Tween-80) 104 % of control; (dose: 3.13 mg/kg/injection, schedule: Q01DX009 (ip), vehicle: saline with Tween-80) 98 % of control; (dose: 6.25 mg/kg/injection, schedule: Q01DX009 (ip), vehicle: saline with Tween-80) 93 % of control and 89 % of control. Also, the T/C is, setting by setting: (dose: 12.5 mg/kg/injection, schedule: Q01DX009 (ip), vehicle: saline with Tween-80) 95 % of control; (dose: 25.0 mg/kg/injection, schedule: Q01DX009 (ip), vehicle: saline with Tween-80) 90 % of control; (dose: 50.0 mg/kg/injection, schedule: Q01DX009 (ip), vehicle: saline with Tween-80) 86 % of control; (dose: 100.0 mg/kg/injection, schedule: Q01DX009 (ip), vehicle: saline with Tween-80) 96 % of control and 92 % of control.
As to `COc1ccccc1C1CCCCC1=O` (stereo unspecified), the T/C under setting [11] is 105 % of control, the T/C under setting [12] was 96 % of control and the T/C under setting [13] is 89 % of control.
Take `O=C(CC(=O)c1ccccc1)Nc1cccc([N+](=O)[O-])c1`: the T/C runs as follows: under setting [8], 90 % of control; under setting [9], 86 % of control; under setting [10], 86 % of control.
`COC(=O)c1cccc([N+](=O)[O-])c1Br`: the T/C is 102 % of control (dose: 50.0 mg/kg/injection, schedule: Q01DX001 (ip), vehicle: other); 96 % of control under setting [11]; 102 % of control under setting [12]; 100 % of control under setting [13].
